{
  "source": "ChEMBL document CHEMBL3045350",
  "about": "“Inheritance of resistance to a new non-steroidal ecdysone agonist, fufenozide, in the diamondback moth, Plutella xylostella (Lepidoptera: Plutellidae)” (2010)",
  "format_in_all_cases": "functional",
  "key": {"[1]": {"test_system": "Plutella xylostella", "assay": "Resistant ratio, ratio of LC50 for F1 generation of third-instar larvae of Plutella xylostella (diamondback moth) to LC50 for fufenozide-susceptible third-instar larvae of Plutella xylostella"}, "[2]": {"test_system": "Plutella xylostella", "assay": "Insecticidal activity against backcrossed third-instar larvae of Plutella xylostella (diamondback moth) in cabbage leaf assessed as mortality after 96 hr by leaf dip method", "details": "foliar"}, "[3]": {"test_system": "Plutella xylostella", "assay": "Insecticidal activity against F2 generation of third-instar larvae of Plutella xylostella (diamondback moth) in cabbage leaf assessed as mortality after 96 hr by leaf dip method", "details": "foliar"}, "[4]": {"test_system": "Plutella xylostella", "assay": "Insecticidal activity against F1 pooled generation of third-instar larvae of Plutella xylostella (diamondback moth) in cabbage leaf assessed as mortality after 96 hr by leaf dip method", "details": "foliar"}, "[5]": {"test_system": "Plutella xylostella", "assay": "Insecticidal activity against F'1 generation of third-instar larvae of Plutella xylostella (diamondback moth) in cabbage leaf assessed as mortality after 96 hr by leaf dip method", "details": "foliar"}, "[6]": {"test_system": "Plutella xylostella", "assay": "Insecticidal activity against F1 generation of third-instar larvae of Plutella xylostella (diamondback moth) in cabbage leaf assessed as mortality after 96 hr by leaf dip method", "details": "foliar"}, "[7]": {"test_system": "Plutella xylostella", "assay": "Insecticidal activity against fufenozide-susceptible third-instar larvae of Plutella xylostella (diamondback moth) in cabbage leaf assessed as mortality after 96 hr by leaf dip method", "details": "foliar"}, "[8]": {"test_system": "Plutella xylostella", "assay": "Insecticidal activity against fufenozide-resistant 39th generation of third-instar larvae of Plutella xylostella (diamondback moth) in cabbage leaf assessed as mortality after 96 hr by leaf dip method", "details": "foliar"}, "[9]": {"test_system": "Plutella xylostella", "assay": "Resistant ratio, ratio of LC50 for backcrossed third-instar larvae of Plutella xylostella (diamondback moth) to LC50 for fufenozide-susceptible third-instar larvae of Plutella xylostella"}, "[10]": {"test_system": "Plutella xylostella", "assay": "Resistant ratio, ratio of LC50 for F2 generation of third-instar larvae of Plutella xylostella (diamondback moth) to LC50 for fufenozide-susceptible third-instar larvae of Plutella xylostella"}, "[11]": {"test_system": "Plutella xylostella", "assay": "Resistant ratio, ratio of LC50 for F1 pooled generation of third-instar larvae of Plutella xylostella (diamondback moth) to LC50 for fufenozide-susceptible third-instar larvae of Plutella xylostella"}, "[12]": {"test_system": "Plutella xylostella", "assay": "Resistant ratio, ratio of LC50 for F'1 generation of third-instar larvae of Plutella xylostella (diamondback moth) to LC50 for fufenozide-susceptible third-instar larvae of Plutella xylostella"}},
  "data": [
    {"smiles": "Cc1cc(C)cc(C(=O)N(NC(=O)c2ccc3c(c2C)OC(C)C3)C(C)(C)C)c1", "note": "(configuration not stated) [FUXIAN]", "values": [
      {"measurement": "RatioLC50", "setting": "[1]", "value": 1.76},
      {"measurement": "LC50", "setting": "[2]", "value": 6.93, "unit": "µg/mL"},
      {"measurement": "LC50", "setting": "[3]", "value": 5, "unit": "µg/mL"},
      {"measurement": "LC50", "setting": "[4]", "value": 5.82, "unit": "µg/mL"},
      {"measurement": "LC50", "setting": "[5]", "value": 6.22, "unit": "µg/mL"},
      {"measurement": "LC50", "setting": "[6]", "value": 5.22, "unit": "µg/mL"},
      {"measurement": "LC50", "setting": "[7]", "value": 2.23, "unit": "µg/mL"},
      {"measurement": "LC50", "setting": "[8]", "value": 1480, "unit": "µM"},
      {"measurement": "RatioLC50", "setting": "[9]", "value": 2.33},
      {"measurement": "RatioLC50", "setting": "[10]", "value": 2.24},
      {"measurement": "RatioLC50", "setting": "[11]", "value": 2.61},
      {"measurement": "RatioLC50", "setting": "[12]", "value": 2.09}
    ]}
  ]
}
